Assays:
RGS4 = target: T1, RGS4 (Homo sapiens, UniProt P49798); test: Cellular thermal shift assay (CETSA), RGS4-HA; type: binding; conditions: 100 μM overnight (16–18 hours); gradient 40–60 °C; vs DMSO
T1 construct: expressed in transfected cells; host or cells: HEK-293T, transient transfection
Experimental: The cells in 100 mm dishes were harvested by trypsination in reduced serum media and transferred to 15 mL conical tubes. The cells were centrifuged at 300 × g for 3 minutes. Media was removed, and the cell pellet was washed with 10 mL of PBS. The cells were then resuspended in 500 μL of PBS and aliquoted into polymerase chain reaction (PCR) tubes. The cells were then heated in a PCR gradient (40–60 °C) for 3 minutes and then transferred to a 25 °C PCR block for 3 minutes. Following this, cells were immediately flash-frozen using liquid nitrogen. The cells were freeze-thawed 3 times to lyse the cells and then spun down at 20,000 × g for 20 minutes. The supernatant was then added to sample buffer and heated for 5 minutes at 95 °C before SDS-PAGE and western blot analysis.
We next assessed whether the action of compound 10 to inhibit the RGS2-FBXO44 interaction is through direct binding to either protein. […] The cells were lysed and analyzed by western blot to determine melting temperatures (Tm). […] We also assessed the effect of compound 10 on the Tm for RGS4, which is closely related to RGS2 and also subject to proteasomal degradation, however, independent of FBXO44 ([Lee et al, 2005]; [Sjögren et al, 2015]).

[1] = test system: HEK-293T-RGS2-FBXO44 NanoBit cells; test: Cell viability assay (GF-AFC fluorescence) multiplexed with NanoBit; type: cell-based, Human; conditions: 100 μM, 16–18 hours, fresh powder
Experimental: The cells were plated in DMEM without phenol red (Gibco, #21063), 0.1% BSA in a white, tissue culture-treated 384-well plate (Perkin Elmer) at 15,000 cells/well, unless indicated otherwise, and allowed to attach. The plate was centrifuged at 212 × g for 30 seconds to aid in even cell adherence. Compound treatments were initiated 4–5 hours after plating. Following indicated treatment times, media was removed from the plate using BioTek ELx405 plate washer. Additionally, 10 μL of Hank’s Balanced Salt solution (HBSS) with 0.1% BSA was added to each well, followed by 5 μL of glycyl-phenylalanyl-aminofluorocoumarin (GF-AFC; MP Biomedicals) diluted 1:1000 in 100 mM HEPES. Plates were then centrifuged at 212 × g for 30 seconds and then incubated at 37 °C for 30 minutes. Fluorescence was detected on a Synergy Neo2 multimode plate reader (BioTek/Agilent).
Our primary assay using the HEK-293T RGS2-FBXO44 NanoBit cell line was extensively optimized to ensure maximum quality for screening. Coupling a fluorescent cell viability assay with our screen would allow us to rule out cytotoxic compounds while also hopefully reducing outliers from pipetting errors while plating cells. Thus, we multiplexed our NanoBit assay with cell viability using a cell-permeable fluorogenic protease substrate (glycyl-phenylalanyl-aminofluorocoumarin; GF-AFC; [Niles et al, 2007]), which can be combined with a luminescent readout without interfering with the luciferase signal. We previously utilized a similar multiplexing strategy in several screens ([Sjögren et al, 2012]; [Raveh et al, 2014]; [Sjögren et al, 2015]). We assessed and optimized treatment conditions (time, temperature, and reagent volume), cell density, buffer composition, and DMSO tolerance. In addition to the supplied proprietary LCS buffer (Promega), we also tested DMEM, 0.1% BSA, PBS, and HBSS (Supplemental Fig. 1A–C). […] The luminescent signal was stable up to 45 minutes after reagent addition, and we chose to run subsequent assays using 20 minutes of incubation time (Supplemental Fig. 1E). We also observed no effect on either viability or luminescence signal at DMSO concentrations <1% (Data not shown).
HEK-293T-RGS2-FBXO44 NanoBit cells were treated for 16–18 hours with compound at 100 μM. This relatively high concentration was chosen because of the challenging nature of our assay (intracellular PPI inhibition). Parental HEK-293T cells were used as a negative control. […] Based on these criteria, 97 compounds were identified as hits from our primary screen (6.1% initial hit rate). To confirm hits, the same assay was repeated in triplicate, which delivered 34 compounds that reached the threshold for inhibition in at least 2 replicates with <25% cell toxicity (Fig. 2C; Supplemental Table 1), thus rendering a final hit rate of 2.1%.

T1 sequence (P49798 whole entry, species assumed): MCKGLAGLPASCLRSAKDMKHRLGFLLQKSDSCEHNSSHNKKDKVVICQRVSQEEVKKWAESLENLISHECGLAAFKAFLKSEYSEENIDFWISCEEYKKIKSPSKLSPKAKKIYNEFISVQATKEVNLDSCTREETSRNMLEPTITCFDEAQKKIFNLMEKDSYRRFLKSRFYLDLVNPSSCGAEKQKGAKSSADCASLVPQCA

SMILES: CCC1CCCCN1S(=O)(=O)c1cc(Br)ccc1OC (centres unmarked) [Compound 10]
- Effect on the Tm for RGS4 (RGS4): no significant effect
- Viability (% of Control) [1]: 69.3∗∗∗∗ % of Control

Reference: PMC13095444, “Discovery of RGS2-FBXO44 interaction inhibitors using a cell-based NanoBit assay” (Molecular Pharmacology, 2025)
